How the values were obtained:
pERK level in H358 cells = assay: pERK and ERK protein content assay in H358 cells (ELISA); assay type: cell-based; conditions: Homo sapiens, NCI-H358, compound 1 μM, 24 h, pERK/ERK ratio compared with DMSO group, read-out: Inhibition rate (%) of pERK level
In short: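 Percent inhibition of pERK relative to DMSO, from the ELISA pERK/ERK ratio in lysed H358 cells. Compound applied at 1 μM for 24 h after one day of growth.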

H358 cells = assay: Antiproliferative activity against H358 cells (Cell Titer Glow, ultra-low attachment plate); assay type: cell-based; conditions: Homo sapiens, NCI-H358, 72 h, 96-well ultra-low attachment plate, three days after addition of compound, Cell Titer Glow
Procedure: 2500 H358 cells were seeded in a 96-well ultra-low attachment plate (corning, 7007). After one day of growth, a serially diluted compound (a maximum concentration of 5 μM, 5-fold dilution, a total of five doses) was added. Three days after the addition of the compound, Cell Titer Glow (Promega, G9681) was added to evaluate pellet growth, and the IC50 value was calculated.

Row | Structure (SMILES) | IC50 (H358 cells) | inhibition at 1 µM (pERK level in H358 cells)
1 | C=CC(=O)N1CC2(CCN(c3nc(N4CC(N5CCCCC5)C4)nc4c(OCC(F)(F)F)c(-c5c(C)ccc6[nH]ncc56)c(C5CC5)cc34)CC2)C1 [Compound 177] | < 300 nM | > 90%
2 | C=CC(=O)N1CC2(CCN(c3nc(N4CC(N5CCC5)C4)nc4c(OCC(F)(F)F)c(-c5c(C)c(F)cc6[nH]ncc56)c(C5CC5)cc34)CC2)C1 [Compound 219] | < 300 nM | > 90%
3 | C=CC(=O)N1CC2(CCN(c3nc(OC4CC5(CCN(C6COC6)CC5)C4)nc4c(OCC(F)(F)F)c(-c5c(C)ccc6[nH]ncc56)c(C5CC5)cc34)CC2)C1 [Compound 133] | < 300 nM | > 90%
4 | C=CC(=O)N1CC2(CCN(c3nc(N4CCN(C5COC5)CC4)nc4c(OCC(F)(F)F)c(-c5c(C)ccc6[nH]ncc56)c(C5CC5)cc34)CC2)C1 [Compound 152] | < 300 nM | > 90%
5 | C=CC(=O)N1CC2(CCN(c3nc(N4CCC5(CCN(C)C5)CC4)nc4c(OCC(F)(F)F)c(-c5c(C)ccc6[nH]ncc56)c(C5CC5)cc34)CC2)C1 [Compound 163] | < 300 nM | > 90%
6 | C=CC(=O)N1CC2(CCN(c3nc(N4CC(N5C6CCC5CC6)C4)nc4c(OCC(F)F)c(-c5c(C)ccc6[nH]ncc56)c(C5CC5)cc34)CC2)C1 [Compound 335] | < 300 nM | > 90%
7 | C=CC(=O)N1CC2(CCN(c3nc(N4CC(N5CC[C@H](C)C5)C4)nc4c(OCC)c(-c5c(C)ccc6[nH]ncc56)c(C5CC5)cc34)CC2)C1 [Compound 330] | < 300 nM | > 90%
8 | C=CC(=O)N1CC2(CCN(c3nc(N4CC(N5CCCC5)C4)nc4c(OCC(F)(F)F)c(-c5c(C)c(F)cc6[nH]ncc56)c(C=C)cc34)CC2)C1 [Compound 224] | < 300 nM | > 90%
9 | C=CC(=O)N1CC2(CCN(c3nc(OC4CC5CC4CN5CCOC)nc4c(OCC(F)(F)F)c(-c5c(C)ccc6[nH]ncc56)c(C5CC5)cc34)CC2)C1 (stereo not shown) [Compound 121] | < 300 nM | 50 to 90%
10 | C=C(F)C(=O)N1CC2(CCN(c3nc(N4CCC5(CCN(CCOC)CC5)CC4)nc4c(OCC(F)(F)F)c(-c5c(C)ccc6[nH]ncc56)c(C5CC5)cc34)CC2)C1 [Compound 108] | 300 to 1000 nM | 50 to 90%
11 | C=CC(=O)N1CC2(CCN(c3nc(N4CC5(C4)[C@@H](O)CCN5C)nc4c(OCC(F)(F)F)c(-c5c(C)ccc6[nH]ncc56)c(C5CC5)cc34)CC2)C1 [Compound 271] | < 300 nM | > 90%
12 | C=CC(=O)N1CC2(CCN(c3nc(N4CC(N5C[C@@H](O)[C@@H](F)C5)C4)nc4c(OCC(F)(F)F)c(-c5c(C)ccc6[nH]ncc56)c(C5CC5)cc34)CC2)C1 [Compound 262] | < 300 nM | > 90%
13 | C=CC(=O)N1CC2(CCN(c3nc(N4CC[C@H](N5CC(F)(F)C5)C4)nc4c(OCC(F)(F)F)c(-c5c(C)ccc6[nH]ncc56)c(C5CC5)cc34)CC2)C1 [Compound 205] | 300 to 1000 nM | 50 to 90%
14 | C=CC(=O)N1CC2(CCN(c3nc(N4CC5(C4)C[S+]([O-])C5)nc4c(OCC(F)(F)F)c(-c5c(C)ccc6[nH]ncc56)c(C5CC5)cc34)CC2)C1 [Compound 305] | 300 to 1000 nM | 50 to 90%
15 | C=CC(=O)N1CC2(CCN(c3nc(N4CC5(CCN(CCOC)CC5)C4)nc4c(OCC(F)(F)F)c(-c5c(C)ccc6[nH]ncc56)c(C=C)cc34)CC2)C1 [Compound 338] | < 300 nM | > 90%
16 | C=CC(=O)N1CC2(CCN(c3nc(N4CC(N5CCC5)C4)nc4c(OCC(F)(F)F)c(-c5c(C)ccc6[nH]ncc56)c(C(=C)C)cc34)CC2)C1 [Compound 320] | < 300 nM | > 90%
17 | C=CC(=O)N1CC2(CCN(c3nc(N4CCC(N5CCOCC5)CC4)nc4c(OCC(F)(F)F)c(-c5c(C)ccc6[nH]ncc56)c(C5CC5)cc34)CC2)C1 [Compound 148] | 300 to 1000 nM | 50 to 90%
18 | C=CC(=O)N1CC2(CCN(c3nc(N4CC5(CCN(CCC#N)CC5)C4)nc4c(OCC(F)(F)F)c(-c5c(C)ccc6[nH]ncc56)c(C5CC5)cc34)CC2)C1 [Compound 87] | < 300 nM | > 90%
19 | C=CC(=O)N1CC2(CCN(c3nc(N4CC[C@H](N5CC[C@H](OC)C5)C4)nc4c(OCC(F)(F)F)c(-c5c(C)ccc6[nH]ncc56)c(C5CC5)cc34)CC2)C1 [Compound 195] | < 300 nM | > 90%
20 | C=CC(=O)N1CC2(CCN(c3nc(N4CCC5(CCN(C)CC5)CC4)nc4c(OCC(F)(F)F)c(-c5c(C)ccc6[nH]ncc56)c(C5CC5)cc34)CC2)C1 [Compound 164] | < 300 nM | > 90%

The next lines start with results.

Row | IC50 (H358 cells) | Structure (SMILES) | inhibition at 1 µM (pERK level in H358 cells)
21 | < 300 nM | C=CC(=O)N1CC2(CCN(c3nc(OC4CC5CCC(C4)S5(=O)=O)nc4c(OCC(F)(F)F)c(-c5c(C)ccc6[nH]ncc56)c(C5CC5)cc34)CC2)C1 (stereo not shown) [Compound 312] | > 90%
22 | 300 to 1000 nM | C=CC(=O)N1CC2(CCN(c3nc(N4CC(N5CC[C@@H](C#N)C5)C4)nc4c(OCC(F)(F)F)c(-c5c(C)ccc6[nH]ncc56)c(C5CC5)cc34)CC2)C1 [Compound 258] | > 90%
23 | < 300 nM | C=CC(=O)N1CC2(CCN(c3nc(N4CC(N5C[C@@H](F)[C@@H](F)C5)C4)nc4c(OCC(F)(F)F)c(-c5c(C)ccc6[nH]ncc56)c(C5CC5)cc34)CC2)C1 [Compound 267] | > 90%
24 | < 300 nM | C=CC(=O)N1CC2(CCN(c3nc(N4CC5(CCN(CCCOC)CC5)C4)nc4c(OCC(F)(F)F)c(-c5c(C)ccc6[nH]ncc56)c(C5CC5)cc34)CC2)C1 [Compound 95] | > 90%
25 | < 300 nM | C=CC(=O)N1CC2(CCN(c3nc(N4CC(N5CC[C@H](C)C5)C4)nc4c(OCC(F)(F)F)c(-c5c(C)ccc6[nH]ncc56)c(C=C)cc34)CC2)C1 [Compound 339] | > 90%
26 | < 300 nM | C=CC(=O)N1CC2(CCN(c3nc(N4CC(N5CC[C@H](C)C5)C4)nc4c(OCC(F)(F)F)c(-c5c(C)c(F)cc6[nH]ncc56)c(C5CC5)cc34)CC2)C1 [Compound 327] | > 90%
27 | < 300 nM | C=CC(=O)N1CC2(CCN(c3nc(N4CC(N5CC(N(C)C)C5)C4)nc4c(OCC(F)(F)F)c(-c5c(C)ccc6[nH]ncc56)c(C5CC5)cc34)CC2)C1 [Compound 244] | > 90%
28 | < 300 nM | C=CC(=O)N1CC2(CCN(c3nc(N4CC5(CCN(CCOCC)CC5)C4)nc4c(OCC(F)(F)F)c(-c5c(C)ccc6[nH]ncc56)c(C5CC5)cc34)CC2)C1 [Compound 93] | > 90%
29 | < 300 nM | C=CC(=O)N1CC2(CCN(c3nc(N(C)CCN4CC(F)C4)nc4c(OCC(F)(F)F)c(-c5c(C)ccc6[nH]ncc56)c(C5CC5)cc34)CC2)C1 [Compound 228] | > 90%
30 | < 300 nM | C=CC(=O)N1CC2(CCN(c3nc(N4CC(N5CC[C@H](F)C5)C4)nc4c(OCC(F)(F)F)c(-c5c(C)ccc6[nH]ncc56)c(C5CC5)cc34)CC2)C1 [Compound 172] | > 90%
31 | < 300 nM | C=CC(=O)N1CC2(CCN(c3nc(O[C@@H]4CCS(=O)(=O)C[C@H]4N(C)C)nc4c(OCC(F)(F)F)c(-c5c(C)ccc6[nH]ncc56)c(C5CC5)cc34)CC2)C1 [Compound 318] | > 90%
32 | < 300 nM | C=CC(=O)N1CC2(CCN(c3nc(OC4CN(C)C4)nc4c(OCC(F)(F)F)c(-c5c(C)ccc6[nH]ncc56)c(C5CC5)cc34)CC2)C1 [Compound 109] | > 90%
33 | 300 to 1000 nM | C=C(F)C(=O)N1CC2(CCN(c3nc(N4CCN(C5CCOCC5)CC4)nc4c(OCC(F)(F)F)c(-c5c(C)ccc6[nH]ncc56)c(C5CC5)cc34)CC2)C1 [Compound 155] | 50 to 90%
34 | < 300 nM | C=CC(=O)N1CC2(CCN(c3nc(OC4C5CC4CN(CCOC)C5)nc4c(OCC(F)(F)F)c(-c5c(C)ccc6[nH]ncc56)c(C5CC5)cc34)CC2)C1 (stereo not shown) [Compound 119] | 50 to 90%
35 | < 300 nM | C=C(F)C(=O)N1CC2(CCN(c3nc(N4CC5(CCN(CC(C)CC)CC5)C4)nc4c(OCC(F)(F)F)c(-c5c(C)ccc6[nH]ncc56)c(C5CC5)cc34)CC2)C1 (stereo not shown) [Compound 82] | > 90%
36 | < 300 nM | C=CC(=O)N1CC2(CCN(c3nc(N4CC(N(C)CCOC)C4)nc4c(OCC(F)(F)F)c(-c5c(C)ccc6[nH]ncc56)c(C5CC5)cc34)CC2)C1 [Compound 140] | > 90%
37 | < 300 nM | C=CC(=O)N1CC2(CCN(c3nc(N4CC[C@H](N5CC[C@H](F)C5)C4)nc4c(OCC(F)(F)F)c(-c5c(C)ccc6[nH]ncc56)c(C5CC5)cc34)CC2)C1 [Compound 191] | > 90%
38 | 300 to 1000 nM | C=C(F)C(=O)N1CC2(CCN(c3nc(OC4C5CC4CN(CCOC)C5)nc4c(OCC(F)(F)F)c(-c5c(C)ccc6[nH]ncc56)c(C5CC5)cc34)CC2)C1 (stereo not shown) [Compound 120] | 50 to 90%
39 | < 300 nM | C=CC(=O)N1CC2(CCN(c3nc(N4CC5(C4)OCC[C@H]5N(C)C)nc4c(OCC(F)(F)F)c(-c5c(C)ccc6[nH]ncc56)c(C5CC5)cc34)CC2)C1 [Compound 281] | > 90%
40 | < 300 nM | C=C(F)C(=O)N1CC2(CCN(c3nc(N4CC5(CCN(C)C5)C4)nc4c(OCC(F)(F)F)c(-c5c(C)ccc6[nH]ncc56)c(C5CC5)cc34)CC2)C1 [Compound 74] | > 90%
41 | < 300 nM | C=CC(=O)N1CC2(CCN(c3nc(N4CC(N5CCCC5)C4)nc4c(OCC(F)(F)F)c(-c5c(C)ccc6[nH]ncc56)c(C(=C)C)cc34)CC2)C1 [Compound 321] | > 90%

— US12479843B2, “Spiro ring-containing quinazoline compounds” (WIGEN BIOMEDICINE TECHNOLOGY (SHANGHAI) CO., LTD., priority 2019, dated 2025)
